Assay results reported in patent publication US20070135399A1, “Heteroaromatic sulphonamide prodrugs” (priority 2005, published 2007).
Like-named read-outs stand apart in the source and are kept apart here.

Assays:
human carboanhydrase II = human carboanhydrase II (Homo sapiens, UniProt P00918); assay: Carboanhydrase inhibition, photometric, nitrophenyl acetate conversion (CA II); assay type: biochemical
Text: (§1) a) Carboanhydrase Inhibition
(§2) Photometric determination of the inhibition of human carboanhydrase I or II by sulphonamides or sulphamates on microtitre plates with the aid of the enzymatic conversion of nitrophenyl acetate with a colour change from colourless to yellow.

human carboanhydrase I = human carboanhydrase I (Homo sapiens, UniProt P00915); assay: Carboanhydrase inhibition, photometric, nitrophenyl acetate conversion (CA I); assay type: biochemical
Text: as §1, §2

[1] = Blood-plasma concentration ratio in heparinized rat blood
Description: b) Blood-plasma concentration ratio—test principle and experimental description:
The blood-plasma ratio is calculated from the measured concentration and the theoretical concentration.

[2] = human carboanhydrase II, read-out: CA II IC50
[3] = human carboanhydrase I, read-out: CA I IC50
[4] = freshly obtained heparinized whole blood

Sequence of human carboanhydrase I (P00915 whole entry): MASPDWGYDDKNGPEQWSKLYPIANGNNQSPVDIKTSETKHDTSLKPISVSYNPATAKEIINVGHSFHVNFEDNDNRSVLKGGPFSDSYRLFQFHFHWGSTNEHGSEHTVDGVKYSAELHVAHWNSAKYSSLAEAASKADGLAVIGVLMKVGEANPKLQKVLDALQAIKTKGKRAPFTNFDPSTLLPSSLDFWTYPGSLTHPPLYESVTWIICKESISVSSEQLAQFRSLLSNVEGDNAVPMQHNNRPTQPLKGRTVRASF

SMILES	IC50 (human carboanhydrase II; [2])	Blood/plasma ratio	IC50 (human carboanhydrase I; [3])	blood plasma ratio [1, 4]	IC50 (human carboanhydrase II)	blood plasma ratio [1]	IC50 (human carboanhydrase I)
C[C@]12CC[C@@H]3c4ccc(OS(N)(=O)=O)cc4CC[C@H]3[C@@H]1CC[C@@H]2O [Oestradiol 3-sulphamate, reference compound]	34 nM	About 50	157 ± 10.6 nM				
C[C@]12CC[C@@H]3c4ccc(O)cc4CC[C@H]3[C@@H]1CC[C@@H]2OC(=O)c1cc(S(N)(=O)=O)sc1Br [Compound 4, 3-Hydroxyoestra-1,3,5(10)-trien-17β-yl 2′-bromo-5′-sulphamoylthiophene-3′-carboxylate]	47 nM		3300 nM	9.5			
CCc1sc(S(N)(=O)=O)cc1C(=O)O[C@H]1CC[C@H]2[C@@H]3CCc4cc(O)ccc4[C@H]3CC[C@]12C [Compound 3, 3-Hydroxyoestra-1,3,5(10)-trien-17β-yl 2′-ethyl-5′-sulphamoylthiophene-3′-carboxylate]	42 nM		3400 nM	1.8			
C[C@]12CC[C@H]3[C@@H](CCC4=CC(=O)CC[C@@]43C)[C@@H]1CC[C@@H]2OC(=O)c1ccc(S(N)(=O)=O)nc1 [Compound 5, 3-Oxoandrost-4-en-17β-yl 6′-sulphamoylnicotinate]					41 nM	3.6	3200 nM
C[C@]12CC[C@@H]3c4ccc(O)cc4CC[C@H]3[C@@H]1CC[C@@H]2OC(=O)c1ccc(S(N)(=O)=O)nc1 [Compound 1, 3-Hydroxyoestra-1,3,5(10)-trien-17β-yl 6′-sulphamoylnicotinate]	31 nM		2900 nM				
C[C@]12CC[C@H]3[C@@H](CCC4=CC(=O)CC[C@@]43C)[C@@H]1CC[C@@H]2OC(=O)c1cncc(S(N)(=O)=O)c1 [Compound 6, 3-Oxoandrost-4-en-17β-yl 5′-sulphamoylnicotinate]					250 nM	5.7	2900 nM
C[C@]12CC[C@@H]3c4ccc(O)cc4CC[C@H]3[C@@H]1CC[C@@H]2OC(=O)c1cncc(S(N)(=O)=O)c1 [Compound 2, 3-Hydroxyoestra-1,3,5(10)-trien-17β-yl 5′-sulphamoylnicotinate]	160 nM		2100 nM	2			
